Measured values published in patent US20050086708A1, “Animal models of retinal tumorigenesis” (priority 2003, published 2005).

Key:
[1] = test system: Y79 cells; assay: Response of cultured retinoblastoma cells to drugs, proportion of viable cells (Y79); assay type: cell-based, human; details: 8 hours exposure, assayed 3 days later
Source text: (§1) Cell Culture. Y79 and Weri1 cells were obtained from the American Type Culture Collection (Manassas, Va.) and maintained in culture in RPMI medium with 10% FCS (McFall, R. C. et al., “Characterization of a new continuous cell line derived from a human retinoblastoma”, Cancer Res 37: 1003-10 (1977)). Stable lines expressing GFP were generated by transfecting pTET-1 (M.A.D. unpublished) into Y79 and Weril cells by using TransFast (Promega, Madison, Wis.); clones were isolated in the presence of hygromycin. To measure live cells, 0.5 ug/ml calcein was used; to measure dead cells, 4 uM ethidium bromide was used.
(§2) Viable Cell Calculation Following Drug Treatment. […] The proportion of cells that had initiated apoptosis (T) was determined by a TUNEL assay.
(§3) Response of Cultured Retinoblastoma Cells to Chemotherapeutic Drugs. […] For all of the cell culture studies, retinoblastoma cells were exposed to drugs at a cell density corresponding to their optimal proliferation and cell survival. The cell number, proportion of metabolically active cells, and proportion of apoptotic cells were combined to generate the proportion of viable cells (see Materials and Methods for calculations). The proportion of dividing cells was estimated by labeling the cultures with BrdU for 1 hour. Initially, cells were exposed to TPT, CBP, or VCR for 8 hours at concentrations ranging from 1 nM to 200 uM, and the cultures were assayed 3 days later.

[2] = test system: Weril cells; assay: Response of cultured retinoblastoma cells to drugs, proportion of viable cells (Weri1); assay type: cell-based, human; details: 8 hours exposure, assayed 3 days later
Source text: as §1, §2, §3

[3] = test system: Y79 and Weril retinoblastoma cells; assay: Combination, time course, FACS and DNA-content studies in cultured retinoblastoma cells; assay type: cell-based, human
Source text: as §1
Immunolabeling and TUNEL and BrdU Assays. Y79 and Weri1 retinoblastoma cells were immunolabeled as described previously for dissociated mouse retinae (Dyer, M. A. & Cepko, C. L., “p27Kip1 and p57Kip2 regulate proliferation in distinct retinal progenitor cell population”, J. of Neurosci 21: 4259-71 (2001); Zhu, C. C. et al., “Six2-mediated auto repression and eye development requires its interaction with members of the Groucho-related family of co-repressors”, Development 129: 2835-49 (2002); Dyer, M. A. & Cepko, C. L., “p57(Kip2) regulates progenitor cell proliferationand amacrine intemeuron development in the mouse retina”, Development 127: 3593-605 (2000)). For in vivo studies, BrdU (100 mg/kg body weight) was administered via tail vein injection. BrdU and TUNEL assays were carried out as described previously (Dyer, M. A. et. al., id, Zhu, C. C. et. al., id; Dyer, M. A. et. al., id). Detailed protocols are available at http://www.stjude.org/dyer.
Fluorescent-Activated Cell Sorting. DNA content was analyzed by dissociating tumors with trypsin (Dyer, M. A. et. al., id; Zhu, C. C. et. al., id; Dyer, M. A. et. al., id) and sorting cells by fluorescent-activated cell sorting (FACS). Cells were washed with PBS, and resuspended in a solution containing 0.05 mg/ml propidium iodide, 0.1% sodium citrate and, 0.1% Triton-X100. Samples were then treated with RNase, filtered through a 40-um nylon mesh, and analyzed on a FACScan (Beckton-Dickson, Franklin Lakes, N.J.).
as §2, §3
Following treatment, RNA was isolated and microarray hybridizations were carried out using the human H1 cDNA microarray (see Materials and Methods).
In these preliminary studies, we included an 8-h drug exposure, because that is the maximum period of drug exposure for children receiving chemotherapy. However, the time that tumor cells are exposed in situ is probably considerably shorter, so we performed a time course experiment to determine the minimum duration of exposure required for the full effect on retinoblastoma cell survival and proliferation.

[4] = test system: Y79 and Weril cells; assay: Microarray gene expression response of retinoblastoma cells to drugs; assay type: cell-based, human; details: microarray analysis after treatment
Protocol: Microarray Hybridization. The H1 human cDNA microarray was printed at the Hartwell Center for Bioinformatics & Biotechnology at St. Jude Children's Research Hospital. The gene list is available at http://www.ncbi.nlm.nih.gov/geo/ (GEO Accession: GLP345). RNA was isolated from approximately 20×10^6 cells in triplicate for each treatment using Trizol (Invitrogen, Carlsbad, Calif.), and 10 ug total RNA underwent one round of linear amplification using the RiboAmp System (Arcturus Applied Genomics, Carlsbad, Calif.) to yield 100 ug of RNA. The RNA was indirectly labeled using aa-dUTP and conjugated with Cy3 and Cy5. Data were then filtered (see http://www.ncbi.nlm.nih.gov/geo/; GLP345 for details), and cluster analysis was performed.
Following treatment, RNA was isolated and microarray hybridizations were carried out using the human H1 cDNA microarray (see Materials and Methods). […] Using the LD50 of TPT, we tested the combination of TPT and CBP and that of TPT and VCR. […] This effect was additive.
Microarray analysis provided even more information about the response of retinoblastoma cells to chemotherapeutic drugs. […] VCR treatment also altered the expression of a different cohort of genes in comparison to TPT treatment. […]

[5] = in vivo; details: for Kp: rat, in vivo, iv
Protocol: Pharmacology. Two-week-old rats were treated with TPT (Hycamtin; GlaxoSmithKline, Research Triangle Park, N.C.) at a maximum tolerated dose (MTD) of 2 mg/kg body weight, CBP (Paraplatin; Bristol-Myers Squibb, New York, N.Y.) at an MTD of 70 mg/kg, and VCR (Mayne Pharma (USA Inc., Paramus, N.J.) at an MTD of 0.5 mg/kg; all agents were administered via tail vein injection. TPT was measured by HPLC UV absorption as described (Thompson, J. et. al., id). Atomic absorption spectrometry of ultrafiltered and nonfiltered samples was used to measure platinum levels (Simpson, A. E. et al., “Transscleral diffusion of carboplatin: an in vitro and in vivo study”, Arch Ophthalmol 120: 1069-74 (2002)). Liquid scintillation was used to measure levels of [H^3]-VCR (70-90 Ci/mmol; PerkinElmer, Wellesley, Mass.). Mice received TPT, CBP, and VCR at a dose and schedule similar to that used to treat children with retinoblastoma (Schouten-Van Meeteren, A. Y. et al., “Overview: chemotherapy for retinoblastoma: an expanding area of clinical research”, Med Pediatr Oncol 38: 428-38 (2002)) or other brain tumors.
To measure retinal and vitreal penetration of TPT, CBP, and VCR, we injected each drug intravenously into 2-wk-old rats; this age corresponded to the stage of treatment in our xenograft model. Drug levels were measured in the vitreous, retina, and plasma at 3 min, 30 min, 1.5 h, 4 h, and 6 h after injection.

[6] = test system: Y79 retinoblastoma xenograft; assay: Orthotopic retinoblastoma xenograft in eyes of newborn rats; assay type: in vivo, rat
Source text: For some experiments, the retinoblastoma cells were labeled with a GFP transgene to unambiguously establish tumor boundaries.
To establish a baseline prior to chemotherapy treatment in our retinoblastoma xenograft model, we analyzed cell number, survival, proliferation, apoptosis, and gene expression 2 weeks after engraftment. One hour before analysis, the rats received an injection of BrdU to label the cells in the S-phase of the cell cycle, a measure of the fraction of dividing cells. The engrafted cells were microdissected from the normal tissue and dissociated; the total cell number was then scored. Calcein and ethidium bromide were used to measure metabolically active cells and dead cells, respectively. […] The fraction of dividing cells was estimated by staining with an anti-BrdU antibody and scoring the fraction of immunopositive cells. […] To estimate the proportion of cells that had initiated apoptosis, we performed a TUNEL assay.
After one course of treatment, the transplanted retinoblastoma cells were analyzed for viability and proliferation as described above.

[7] = test system: retinoblastoma; details: subconjunctival administration; cited from earlier work
[8] = test system: retinoblastoma; details: low-dose, frequent versus infrequent, high-dose administration; cited from earlier work
[9] = test system: primary human retinoblastoma tumors; assay: Enlarged nuclei in tumors removed from patients following VCR treatment; assay type: in vivo; details: human tumors treated with VCR; control primary tumors 4%±1%
Source text: We were surprised that VCR was not effective at halting retinoblastoma growth in the orthotopic xenograft model because VCR is often combined with other chemotherapeutic agents in the treatment of retinoblastoma in children. It was possible that there was a minor effect of VCR treatment that was masked in our system by the active proliferation and expansion of the xenograft. One of the hallmarks of VCR exposure is a nucleus with twice the genomic DNA content, because VCR blocks cytokinesis without halting cell cycle progression. To test if there was any VCR-mediated block of mitosis, we scored the proportion of large cells with twice the genomic DNA content in cultured cells, xenografts, and tumors removed from patients following VCR treatment. […] The proportion of enlarged nuclei in xenografts and primary human tumors following VCR treatment was similar to control xenografts (3%±2%) and primary tumors (4%±1%), respectively.

[10] = 2-wk-old rats, intravenous, 3 min to 6 h

SMILES | LD50 [1] [nM] | cell cycle arrest phase [3] | exposure sufficient to achieve the maximum reduction in cell survival and proliferation ([3]; time course experiment) [min] | p53 pathway activation [4] | LD50 ([2]; Weril cells) [nM] | Kp ([5]; AUC retina/plasma ratio) | Kp ([5]; AUC vitreous/plasma ratio) | also measured
N.N.O=C([O-])C1(C(=O)[O-])CCC1.[Pt+2] [CBP, carboplatin] | 4000 | arrested in either the G1 or G2 phase | 15 | not activated |  |  |  | LD50 ([2]; Weri1 cells): 5000 nM; AUC retina/plasma ratio [5, 10]: 0.03; AUC vitreous/plasma ratio [5, 10]: 0.59; cell number/eye ([6]; 2-wk-old rats, after one course of treatment, untreated 2.4±0.6×10^6): 0.79±0.29×10^6 cell number/eye; effect on tumor size [7]: effective at reducing tumor size
CC[C@@]1(O)C(=O)OCc2c1cc1n(c2=O)Cc2cc3c(CN(C)C)c(O)ccc3nc2-1 [TPT, topotecan] | 30 | G2 arrest | 15 | activated | 19 | 0.7 | 0.38 | proportion of cells arrested in G2 phase (FACS) ([3]; exposed for 10 min): 36%; proportion of cells arrested in G2 phase (FACS) ([3]; exposed for 8 h): 39%; effect on tumor burden [8]: more effectively reduced the tumor burden
CC[C@]1(O)C[C@H]2CN(CCc3c([nH]c4ccccc34)[C@@](C(=O)OC)(c3cc4c(cc3OC)N(C=O)[C@H]3[C@@](O)(C(=O)OC)[C@H](OC(C)=O)[C@]5(CC)C=CCN6CC[C@]43[C@@H]65)C2)C1 [VCR, vincristine] | 5 |  |  |  | 3 | 1 | 1.1 | exposure time required to kill retinoblastoma cells in culture [3]: 4 h; cells with twice their normal DNA content ([3]; cultured cells, 5 nM for 8 h): Approximately 98%; exposure time of maximum decrease in viability ([3]; time course experiment): 4 h; effect on retinoblastoma cell survival ([6]; short-term assay, one course of treatment): little effect; proportion of enlarged nuclei (cell cycle progression without cytokinesis) ([6]; xenografts treated with VCR, control xenografts 3%±2%): 2%±1%; proportion of enlarged nuclei (cell cycle progression without cytokinesis) [9]: 5%±1.5%
